{"source": "patent US20230114627A1", "about": "“COMPOSITION COMPRISING A METAL ASCORBO-CAMPHORATE COMPOUND AND METHOD FOR PREVENTION AND/OR TREATMENT OF PAPILLOMAVIRUS INFECTIONS” (MGB PHARMA Inc., priority 2020, published 2023)", "assay_type_in_all_cases": "cell-based", "key": {"Vero cells": {"test_system": "Vero cells", "experiment": "MTT cytotoxicity assay on Vero cells", "method": "The cytotoxicity study was conducted on three types of cells: on Vero cells, on human diploid MRC5 cells (human fibroblast and embryonic type), and on Cos-7 cells. […] The latter forms crystals with the highly metabolic living cells.\nThe absorbance at 490 nm of the dissolved crystals corresponds to the number of living cells.\nIn a first series of tests, the Cytotoxicity of said ascorbo-camphorate on Vero cells was verified with these solutions at dilution rates ranging from one tenth to one billionth."}, "[1]": {"test_system": "HEC-1A (line of endocervical origin)", "experiment": "XTT cell viability (KIT Tox-2) on HEC-1A", "details": "24 hours, 1 μM to 500 μM tested", "method": "(§1) In this example, the cell viability as a measure of non-toxicity was assessed using KIT Tox-2 XTT Sigma Aldrich, where cell viability was measured in terms of the ability of cells to degrade a colorless compound into a colored compound (mitochondrial enzymes) using color intensity as being proportional to the cell viability. Three cell lines as models were used including HEC-1A (line of endocervical origin), SiHa (vaginal cells), and CaCo-2 (intestinal cells). […] KIT Tox-2 XTT Sigma Aldrich."}, "SiHa (vaginal cells)": {"test_system": "SiHa (vaginal cells)", "experiment": "XTT cell viability (KIT Tox-2) on SiHa", "details": "24 hours, 1 μM to 500 μM tested", "method": "as §1"}, "[2]": {"test_system": "CaCo-2 (intestinal cells)", "experiment": "XTT cell viability (KIT Tox-2) on CaCo-2", "details": "CaCo-2, 24 hours, 1 μM to 500 μM tested", "method": "as §1"}, "CaCo-2": {"test_system": "CaCo-2", "experiment": "Transepithelial electrical resistance (TEER) of CaCo-2 monostratified epithelium", "details": "CaCo-2, up to 500 μM, 24 hours"}}}
{"substance": "zinc tetra-ascorbo-camphorate [C14]", "values": [{"measurement": "percentage of living cells remaining", "setting": "Vero cells; 50-fold dilution of 0.05155 M stock", "result": "greater than or equal to 50%"}, {"measurement": "molarity of solutions tolerable by Vero cells (upper limit, value excluded)", "setting": "Vero cells; lower limit tested 5.15.10^−5 μM", "result": "< 1031", "unit": "µM"}, {"measurement": "concentrations without toxicity to epithelial cells", "setting": "[1]", "result": "less than or equal to 125 μM"}, {"measurement": "concentrations without toxicity to epithelial cells", "setting": "SiHa (vaginal cells)", "result": "less than or equal to 125 μM"}, {"measurement": "concentrations without toxicity to epithelial cells", "setting": "[2]", "result": "less than or equal to 125 μM"}, {"measurement": "effect on TEER", "setting": "CaCo-2", "result": "does not affect the TEER"}]}
